Results: patent US9675662B2, “Compositions for inhibition of RNA polymerase I and methods of production and use thereof” (The Board of Regents of the University of Oklahoma, priority 2011, dated 2017)
“Also recorded” adds a separate entry of the source. Like-named read-outs stand apart in the source and are kept apart here. Where no end group is shown, it is not given here. The star is where a group is joined. Biotin = O=C1N[C@H]2[C@H](CS[C@H]2CCCCC(=O)*)N1

Key:
Rrn3 = target: T1, Rrn3 (Homo sapiens, UniProt Q9NYV6); test: Binding of purified recombinant Rrn3 to streptavidin beads carrying biotinylated 22mer (pull-down, western blot); conditions: western blotting for Rrn3 (anti-FLAG)
T1 construct: made in house
Description: Immunoaffinity purified Rrn3 was incubated with streptavidin beads that had been preincubated with biotin-tagged 22mer or control extracts. After the beads were washed the proteins bound to the beads were analyzed by SDS-PAFE and western blotting for Rrn3 (anti-FLAG antibody).
In order to address that question, a biotinylated peptide made up of those 22 amino acids (biotin-[…] (SEQ ID NO:1)) was attached to streptavidin beads, and the ability to bind purified, recombinant Rrn3 was determined.

NIH 3T3 cells = test: Growth of NIH 3T3 cells after 48 hours; format: cell-based; conditions: three plating densities, 40 and 60 μM
Description: FIG. 10 illustrates the effects of a TAT-tagged 22mer (TAT-22mer) composition of the presently disclosed inventive concept(s) on NIH 3T3 cells plated at three different densities after 48 hours.
However, it was possible that the same peptide would inhibit the growth of “normal” cells as well. To examine this possibility, TAT-tagged 22mer was added to the media of NIH 3T3 cells, and growth was measured after 48 hours.
(§1) In these experiments, and in others described below, cell numbers were determined using the […], and the absorbance at 570 nm is presented instead of cell numbers.

A431 cells = test: Growth of A431 cells plated at low density; format: cell-based; conditions: 72 hr
Description: FIG. 12 illustrates the effects of TAT-22mer on the growth of A431 cells plated at low density after 72 hr.
as §1

[1] = tested on: rDNA transcription (RNA polymerase I); test: Cell-free rDNA transcription reaction (N1S1 nuclear extracts, rat rDNA promoter); format: biochemical; conditions: added in excess to transcription reaction
Source text: FIG. 6 illustrates squelching by excess Rpa43 or the peptide (22mer) that mediates the interaction between Rpa43 and Rrn3.
To test this model, recombinant Rpa43 was purified and added to cell free transcription reactions to determine if excess Rpa43 could inhibit transcription. The components added to this reaction included nuclear extracts of N1S1 cells (a rat tumor cell line), and recombinant DNA of the rat rDNA promoter and the purified, recombinant Rpa43 or purified synthetic peptides (FIG. 6). […] A similar series of experiments was then undertaken with synthetic peptides. The two peptides were based on the sequence of the region shown to be required for the interaction between Rrn3 and Rpa43 (FIG. 6, Panel B).

293T cells = test: Growth of 293T-based cell lines expressing doxycycline-inducible peptide; conditions: peptide expressed in cells grown in doxycycline; versus Ψ peptide
Source text: To confirm and extend these studies, cell lines were constructed that were based on 293T cells (Invitrogen, Carlsbad, Calif.), that expressed doxycycline-inducible 22mer or the random peptide (Ψ). […] N.B., there was an inhibition of growth.

WI38 cells = test: Growth of WI38 cells (MTT assay) and peptide uptake; format: cell-based; conditions: 48 hours
Description: FIG. 11 illustrates the effects of TAT-22mer on WI38 cells after 48 hours using the MTT assay.
as §1

N1S1 rat hepatoma cells = test: Growth of N1S1 hepatoma cells after peptide transduction; format: cell-based
Description: FIG. 14 illustrates the effects of TAT-22mer (labeled “STBY”) on the growth of N1S1 rat hepatoma cells.
FIG. 15 illustrates the effects of TAT-22mer (labeled “STBY”) on the growth of N1S1 rat hepatoma cells (fresh peptide added after 24 hours).
This effect was then tested […], i.e. with immortalized cells in tissue culture. There are several possible ways of introducing the desired peptide into cells. In a first experiment, ten amino acids, YGRKKEEQRR (SEQ ID NO:176), were added to the N-terminus of the 22mer peptide, […] (resulting in a sequence of […] (SEQ ID NO:175)); the ten amino acids were added to assist in transduction of the peptide into the cells. The TAT peptide is an NH2-terminal 11-amino acid protein transduction domain (PTD) from the human immunodeficiency virus (HIV) TAT protein that was first identified in 1988 by Green et al. This peptide and peptides like it are capable of transducing proteins across the cell membrane.
The effects of transducing the 22mer coupled to TAT peptide were then compared to TAT peptide alone. An aggressive chemically-induced hepatoma cell line (N1S1 cells) was used for these experiments.
(§2) When the sequence of the 22mer was examined, it was noted that it contains two cysteine residues that might form a disulfide bond and inhibit the activity of the peptide. To examine this question, the experiment previously carried out on the N1S1 cells was repeated using peptide that was dissolved in 0.1 mM […].

[2] = tested on: P1798 mouse lymphosarcoma cells; test: Growth and viability (Trypan blue exclusion) of P1798 lymphosarcoma cells; format: cell-based
Source text: FIG. 16 illustrates the effect of TAT-22mer on P1798 mouse lymphosarcoma cells.
FIG. 17 contains micrographs of P1798 mouse lymphosarcoma cells treated with TAT-22mer (“STBY peptide”) at indicated doses. The cells were stained with trypan blue to determine viability.
FIG. 18 illustrates the effects of TAT-22mer (TAT-STBY) and TAT-STBY C-Mu on P1798 mouse lymphosarcoma cells.
FIG. 19 illustrates the effects of TAT-22mer (TAT-STBY) and TAT-STBY C-Mu on the viability of P1798 mouse lymphosarcoma cells. The same cells studied in the experiment presented in FIG. 18, were also stained with Trypan blue to determine viability. The viable cell counts at 10 and 24 hrs of treatment were too low to be considered reliable (*).
FIG. 20 illustrates the effects of TAT-22mer (TAT-STBY) and TAT-STBY C-Mu on the viability of P1798 mouse lymphosarcoma cells as analyzed in FIGS. 18 and 19.
FIG. 21 illustrates the effects of TAT-22mer (TAT-STBY) and TAT-STBY C-Mu on P1798 mouse lymphosarcoma cells. P1798 Cells were treated with TAT-STBY C-Mu for 26 hours and then stained with Trypan blue. […] The treated cells were concentrated 20× for photography.
FIG. 22 illustrates the kinetics of cell death following treatment with C-Mu peptide. […] Cells were harvested by centrifugation every two hours, and the numbers of viable cells were determined using the Trypan blue exclusion assay.
as §2
In fact, automated cell-cell counting was inaccurate due to the increased amount of dead cells and debris (FIGS. 19-20).

[3] = tested on: U937 human lymphoma cells; test: Growth of U937 cells; format: cell-based
Description: FIG. 13 illustrates the effects of TAT-22mer on the growth of U937 cells after 24 hours.
as §1

[4] = tested on: rDNA transcription in N1S1 cells; test: [3H]-uridine incorporation into newly synthesized RNA in transduced N1S1 cells; format: cell-based, rat; conditions: 40 μM, eight hours after transduction
Description: FIG. 7 illustrates that transduction of the 22mer inhibits rDNA transcription in tissue culture cells. Low density cultures of N1S1 cells were transduced with the TAT-22mer (40 μM). Eight hours after transduction, the cells were incubated with tritiated uridine to label newly synthesized RNA. Total RNA was precipitated with TCA and collected on glass fiber filters, and the radioactivity incorporated was measured by liquid scintillation counting.

T1 sequence (Q9NYV6 whole entry, species assumed): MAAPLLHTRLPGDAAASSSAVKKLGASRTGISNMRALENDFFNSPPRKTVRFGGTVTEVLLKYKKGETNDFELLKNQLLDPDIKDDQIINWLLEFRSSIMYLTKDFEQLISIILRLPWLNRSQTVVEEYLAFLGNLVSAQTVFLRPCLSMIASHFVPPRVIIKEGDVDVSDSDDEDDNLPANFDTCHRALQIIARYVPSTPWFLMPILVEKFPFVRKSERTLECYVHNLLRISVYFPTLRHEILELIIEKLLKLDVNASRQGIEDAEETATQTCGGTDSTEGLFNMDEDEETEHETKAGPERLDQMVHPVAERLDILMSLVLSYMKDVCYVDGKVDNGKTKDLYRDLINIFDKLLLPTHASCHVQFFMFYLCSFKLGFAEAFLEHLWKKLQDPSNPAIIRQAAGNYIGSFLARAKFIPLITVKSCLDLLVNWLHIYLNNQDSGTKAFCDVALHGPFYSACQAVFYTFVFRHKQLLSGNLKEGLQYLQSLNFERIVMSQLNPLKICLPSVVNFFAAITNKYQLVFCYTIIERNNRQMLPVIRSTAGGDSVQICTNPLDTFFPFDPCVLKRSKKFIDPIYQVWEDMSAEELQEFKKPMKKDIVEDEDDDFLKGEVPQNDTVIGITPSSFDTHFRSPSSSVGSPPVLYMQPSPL

Row | Substance | binding of Rrn3 to bead-bound peptide (Rrn3) | binding of Rrn3 to bead-bound peptide (Rrn3; listed as biotin-tagged 22mer) | growth of 3T3 cells (NIH 3T3 cells) | growth of A431 cells (A431 cells) | inhibition of cell-free rDNA transcription [1] | cell growth / rate of cell division (293T cells) | growth of WI38 cells (WI38 cells) | N1S1 cell growth / cell division (N1S1 rat hepatoma cells) | appearance of N1S1 cells (N1S1 rat hepatoma cells; 40 μM, after 48 hr) | rate of N1S1 cell accumulation (N1S1 rat hepatoma cells; 20 and 40 μM) | growth of P1798 cells [2] | Trypan blue dye exclusion by P1798 cells ([2]; 40 μM) | response of P1798 cells at 40 micromolar ([2]; 40 micromolar, cells grown in a reducing medium) | number of viable P1798 cells ([2]; photomicrographs, Trypan blue) | growth of U937 cells [3] | growth of U937 cells at 80 μM ([3]; 80 μM, 24 hours) | inhibition of rDNA transcription ([4]; inferred from uridine incorporation) | inhibition of [3H]-uridine incorporation ([4]; low density N1S1 cultures) | N1S1 cell growth / cell division (N1S1 rat hepatoma cells; listed as STBY) | decrease in number of treated N1S1 cells (N1S1 rat hepatoma cells; peptide dissolved in 0.1 mM reducing agent (dithiothreitol), fresh peptide added after 24 hours)
1 | Biotin-NKVSSSHIGCLVHGCFNASIPK (cysteine pairing not given here) [biotinylated 22mer] | Rrn3 bound to beads | sufficient to mediate interaction between Rpa43 and Rrn3 | – | – | – | – | – | – | – | – | – | – | – | – | – | – | – | – | – | –
2 | NKVSSSHIGCLVHGCFNASIPK (listed as Homo sapiens) [22mer, amino acids 137 to 158 of mouse Rpa43] | – | – | no effects on the growth | inhibited the growth | inhibits transcription; also recorded: transcription was inhibited | inhibits cell growth; also recorded: significant decrease in the rate of cell division | minimal effect on the growth | inhibits cell division; also recorded: significantly inhibited cell growth in a dose-dependent manner | appeared to be apoptotic | decreased rate of cell accumulation | – | – | – | – | – | – | – | – | – | –
3 | YGRKKEEQRRNKVSSSHIGCLVHGCFNASIPK (1st ten amino acids are TAT peptide from HIV; last 22 amino acids are from Homo sapiens) [TAT-22mer, 22mer with ten TAT amino acids added to the N-terminus] | – | – | – | – | – | – | minimal effect on cell accumulation | cell growth was inhibited | – | – | very significant effects on the growth | did not exclude the dye | significant response | significantly reduced the number of viable cells | very significant effects on the growth | significant inhibition of cell growth | ~100% | 70% | very significant effects on the growth | 90%
